Source: patent US6583132B1, “Oxidant scavengers” (Duke University, priority 1993, dated 2003)

Legend:
[1] = SOD activity (McCord and Fridovich); assay type: biochemical
Description: SOD activity can be monitored in the presence and absence of EDTA using the method of McCord and Fridovich (J. Biol. Chem. 244:6049 (1969)). The efficacy of a mimetic can be determined by measuring the effect of the mimetic on the growth of a SOD null E. coli strain versus a wild type strain. Specifically, wild type E. coli (AB1157) and SOD null E. coli. (JI132) can be grown in M9 medium containing 0.2% casamino acids and 0.2% glucose at pH 7.0 and 37° C.; growth can be monitored in terms of turbidity followed at 700 nm spectrophotometrically. Active mimetics can be tested for toxicity in mammalian cell culture by measuring lactate dehydrogenase (LDH) release. Specifically, rat L2 cells (a lung Type II like cell; (Kaighn and Douglas, J. Cell Biol. 59:106a (1973)) can be grown in Ham's F-12 medium with 10% fetal calf serum supplement at pH 7.4 and 37° C.; cells can be seeded at equal densities in 24 well culture dishes and grown to approximately 90% confluence; SOD mimetics can be added to the cells at log doses (eg micromolar doses in minimal essential medium (MEM)) and incubated for 24 hours. Toxicity can be assessed by morphology and by measuring the release of the cytosolic injury marker, LDH (eg on a thermokinetic plate reader), as described by Vassault (In: Methods of Enzymatic Analysis, Bergmeyer (ed) pp. 118-26 (1983); oxidation of NADH is measured at 340 nm). Efficacy of active mimetics can be assessed by determining their ability to protect mammalian cells against methylviologen (paraquat)-induced toxicity. Specifically, rat L2 cells grown as described above and seeded into 24 well dishes can be pre-incubated with various concentrations of the SOD mimetic and then incubated with a concentration of methylviologen previously shown to produce an LC75 in control L2 cells. Efficacy of the mimetic can be correlated with a decrease in the methylviologen-induced LDH release (St. Clair et al, FEBS Lett. 293:199 (1991)). The efficacy of SOD mimetics can be tested in vivo with mouse and/or rat models using both aerosol administration and parenteral injection. For example, male Balb/c mice can be randomized into 4 groups of 8 mice each to form a standard 2×2 contingency statistical model. Animals can be treated with either paraquat (40 mg/kg, ip) or saline and treated with SOD mimetic or vehicle control. Lung injury can be assessed 48 hours after paraquat treatment by analysis of bronchoalveolar lavage fluid (BALF) damage parameters (LDH, protein and % PMN) as previously described (Hampson et al, Tox. Appl. Pharm. 98:206 (1989); Day et al, J. Pharm. Methods 24:1 (1990)). […]
^2SOD activity determined as described by McCord and Fridovich, J. Biol. Chem. […] (1969).

[2] = tested on: calf pulmonary artery endothelial cell cultures (CPA-47); assay: Paraquat-induced injury of CPA-47 cells, LDH release; assay type: cell-based; details: varying concentrations; Paraquat 2 mM, 24 hours
Description: Calf pulmonary artery endothelial cell cultures (CPA-47) were grown to confluence in Ham's F-12K medium with 10% fetal bovine serum at pH 7.4 and 37° C. Cells were then trypsinized and seeded at equal densities in 24 well plates and grown to 90% confluence. Cells were washed and pre-incubated for 1 hour with varying concentrations of ZnTBAP in MEM or MEM only. Paraquat (2 mM) was added and allowed to incubate for 24 hours. Cell injury was quantitated by measuring the release of cellular lactate dehydrogenase (LDH) into the medium.

[3] = tested on: Calf pulmonary endothelial cell (CPA-47) line; assay: Glucose oxidase hydrogen peroxide injury of CPA-47, Cr^51 release; assay type: cell-based; details: glucose oxidase 100 Mu/ml, 4 hours; 1 hour pretreatment
Description: (§1) Calf pulmonary endothelial cell (CPA-47) line was grown to near confluence in 12-well plates with F-12K medium containing 10% fetal calf serum. CPA-47 cells were loaded with Cr^51 as previously described by Simon et al J. Clin. Invest. 78:1375 (1986) in high glucose minimum essential medium (DMEM). Cells were pretreated with MnTBAP (100 μM) for 1 hour and then exposed to various concentrations of hydrogen peroxide generator, glucose oxidase, for 4 hours. Cell injury was then quantitated as the specific Cr^51 release from CPA-47 cells which has been adjusted for spontaneous Cr51 release.
as §1, with “(J.” for “J.”, “(1986))” for “(1986)”, “various concentrations of either: (A) MnTBAP; (B) MnTMPyP; (C) ZnTBAP; or (D) CuZnSOD” for “MnTBAP (100 μM)”, “the” for “various concentrations of”, “oxidase (100 Mu/ml),” for “oxidase,”, “Cr^51” for “Cr51”

[4] = CNS oxygen toxicity, 6 ATA hyperbaric oxygen exposure; assay type: in vivo, mice; details: 6 ATA oxygen 25 minutes, DDC 400 mg/kg i.p. or LNNA 20 mg/kg i.p.
Description: Oxygen exposures: 7-8 week old mice were exposed to hyperbaric oxygen five at a time in a small-animal chamber (Bethlehem, Pa.). After flushing the chamber with pure oxygen, compression to 50 meters (6 ATA) was performed within 5 minutes. The oxygen concentration in the chamber was monitored continuously with a Servomex oxygen analyzer (model 572, Sybron, Norwood, Mass.) and maintained at ≳99%. The carbon dioxide concentration was analyzed from intermittent samples of chamber gas with an IR detector (IR Industries, Santa Barbara, Calif.) and was not allowed to rise above 0.1%. The chamber temperature was maintained at 25-26° C., but the compression of oxygen in the chamber raised the temperature to 30-32° C. transiently, but an environmental control system restored the normal chamber temperature within 3 minutes. […] The mice were observed continuously for signs of oxygen toxicity from the beginning of the exposure until 4 hours after removal from the chamber. The time to the first generalized convulsion (seizure latency) and the time to death were recorded. These exposure conditions are designed to cause CNS oxygen toxicity without appreciable evidence of pulmonary oxygen toxicity.
Treatment with diethyldithiocarbamate: One hour prior to exposure to 6 ATA oxygen, mice were given either i.p. injections of either 0.008 cc/g saline or 400 mg/kg diethyldithiocarbamate dissolves in normal saline (0.008 cc/g). The mice were then exposed to 6 ATA oxygen for 25 minutes as described above.
Treatment with β-mercaptoethanol: One hour prior to exposure to 6 ATA oxygen, mice were given either i.p. injections of 0.008 cc/g saline or 180 mg/kg β-mercaptoethanol (0.008 cc/g). This dose of β-mercaptoethanol was selected because it contains an equal number of reducing thiols as the dose of diethyldithiocarbamate. The mice were then exposed to 6 ATA oxygen for 30 minutes as described above.
Treatment with N-ω-nitro-L-arginine, an inhibitor of nitric oxide synthase: Ten minutes prior to beginning compression, 0.008 cc/g saline or 20 mg/kg (0.008 cc/g) N-ω-nitro-L-arginine dissolved in sterile water was given i.p to the transgenic and nontransgenic mice. Mice were then exposed at 6 ATA oxygen for 25 or 75 minutes as described above.

EC-SOD = biological target: T1, EC-SOD (Mus musculus, UniProt O09164); assay: Brain EC-SOD activity after diethyldithiocarbamate; assay type: in vivo; details: transgenic and nontransgenic mice, sacrificed one hour later
T1 construct: The brains were removed and assayed for EC-SOD and CuZn SOD activity as described above; from tissue; host or cells: mouse brain; EC-SOD separated from the homogenate on concanavalin A sepharose
T1 sequence (O09164 25-251): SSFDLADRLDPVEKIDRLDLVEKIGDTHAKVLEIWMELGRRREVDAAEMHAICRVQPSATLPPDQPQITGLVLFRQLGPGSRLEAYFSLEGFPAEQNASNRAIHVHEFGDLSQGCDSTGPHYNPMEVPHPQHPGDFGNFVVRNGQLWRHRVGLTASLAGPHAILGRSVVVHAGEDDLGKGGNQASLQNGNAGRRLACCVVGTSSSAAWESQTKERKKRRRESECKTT
Description: (§2) Separation of SOD isoenzymes by concanavalin A sepharose chromatography: Tissues taken from 3 mice were weighed, then combined and homogenized in 10 volumes of ice-cold 50 mM potassium phosphate, pH 7.4, with 0.3 M. KBr, 3 mM diethylenetriaminepentaacetic acid, and 0.5 mM phenylmethylsulfonyl fluoride. Separation of EC-SOD from CuZn SOD and Mn SOD was accomplished by passing tissue homogenates over a concanavalin A sepharose column as described (Marklund et al, Clin. Chim. Acta 126:4 (1982)). SOD activity: EC-SOD activity and total SOD activity (CuZn SOD and Mn SOD) remaining after EC-SOD extraction were measured by inhibition of cytochrome C reduction at pH 10, as previously described (Crapo et al, Methods Enzymol. 53:382 (1978)). Total protein was determined by the BCA protein assay (Pierce, Rockford, Ill.). The SOD activities were then expressed as units/mg total protein. To determine the extent of EC-SOD and CuZn SOD inhibition by diethyldithiocarbamate, mice were given diethyldithiocarbamate and sacrificed one hour later. The brains were removed and assayed for EC-SOD and CuZn SOD activity as described above.

CuZn SOD = biological target: T2, CuZn SOD (Mus musculus, UniProt P08228); assay: Brain CuZn SOD activity after diethyldithiocarbamate; assay type: in vivo; details: transgenic and nontransgenic mice, sacrificed one hour later
T2 construct: from tissue; host or cells: mouse brain; homogenate fraction left after removal of EC-SOD on concanavalin A sepharose
Description: as §2

T2 sequence (P08228 whole entry): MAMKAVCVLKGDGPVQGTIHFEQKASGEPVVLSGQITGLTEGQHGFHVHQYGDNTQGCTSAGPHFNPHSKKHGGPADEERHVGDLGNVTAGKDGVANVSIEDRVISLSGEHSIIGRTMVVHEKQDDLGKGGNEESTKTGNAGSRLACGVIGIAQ

Compound: O=C(O)c1ccc(-c2c3nc(c(-c4ccc(C(=O)O)cc4)c4ccc([n-]4)c(-c4ccc(C(=O)O)cc4)c4nc(c(-c5ccc(C(=O)O)cc5)c5ccc2[n-]5)C=C4)C=C3)cc1.[Zn+2] [ZnTBAP, reference compound]
- SOD activity, fold less than MnTBAP [1]: 10 fold
- paraquat-induced LDH release / injury [2]: does not protect against paraquat-induced injury
- hydrogen peroxide-induced endothelial cell injury [3]: does not reduce

Compound: CCN(CC)C(=S)S [diethyldithiocarbamate]
- Survival ([4]; nontransgenic mice): 93%
- Survival ([4]; transgenic mice): 100%
- inhibition at 400 mg/kg (EC-SOD): 80%
- inhibition at 400 mg/kg (CuZn SOD): 60%
